From patent US11357850B2, “Methods for treating breast cancer using INOS-inhibitory compositions” (The Methodist Hospital, priority 2014, dated 2022)

Tests used:
[1] = cited from earlier work
[2] = target: iNOS (Homo sapiens, UniProt P35228); assay: LC-MS/MS quantification of citrulline in xenograft tissue; assay type: in vivo, mice; settings: SUM159 xenograft tissue, 24 hrs after completion of treatment
Method: Ratiometric quantification of citrulline SUM159 xenograft tissue LC-MS/MS (Student's t-test). […] Results were normalized to vehicle. Data are presented as mean±SEM. ****p<0.0001, ***p<0.001, **p<0.01, *p<0.05; one-way ANOVA and Bonferroni's post-hoc test;
Metabolite profiling by liquid chromatography-tandem mass spectrometry (LC-MS/MS). MDA-MB-231 and SUM159 xenograft tissue from animal studies (L-NMMA given daily) as well as plasma samples were prepared as previously described. […] LC-MS/MS platform used for metabolite profiling was previously described. Ratiometric quantification of methylarginine (L-NMMA) and citrulline was determined as ion abundance levels in plasma and tumor tissue.

[3] = tested on: MDA-MB-231 xenografts; assay: MDA-MB-231 xenografts treated with L-NMMA, docetaxel, combination; assay type: in vivo, mice
Method: (§1) Animal Studies. Female SCID Beige mice (4-5 weeks old) (Harlan Laboratories, Houston, Tex., USA) were housed under standard laboratory conditions (22° C.; 12 hrs/12 hrs light/dark cycle and free access to food and water). Either MDA-MB-231 or SUM159 cells (3×10^6) were injected in the right mammary fat pad. Once the tumors reached 150-200 mm^3, the mice were randomized into different groups as follows (n=10/group): 1) Vehicle (saline, i.p.), 2) L-NMMA (either 80 mg/kg or 200 mg/kg, i.p., daily), 3) Docetaxel (20 mg/kg), 4) Combo (L-NMMA and docetaxel).
(§2) Self-renewal and tumor-initiating capacity was determined by MSFE and limiting-dilution assays, respectively, in single cells isolated from tumor tissue. Briefly, breast tumor tissue was minced, digested in DMEM:F12 medium with 100 U/mL of collagenase type 3 (Worthington, Lakewood, N.J., USA) and 0.8 U/mL of dispase (Gibco, Carlsbad, Calif., USA) at 37° C. for 45 min. MSFE was assayed in isolated single cells as stated above. The limiting dilution assay (LDA) was performed injecting either […] isolated cells from tumor tissue in the mammary fat pad of SCID Beige mice (n=12/group). Flow cytometric analysis of CD44^+/CD24^−/low cell population was assayed using published methods.
The role of L-NMMA was then investigated, either alone or in combination with docetaxel in a different TNBC mouse model. Docetaxel (20 mg/kg at days 0 and 21) and 200 mg/kg L-NMMA (daily) were given to MDA-MB-231 xenograft-bearing mice for 31 days.

[4] = cited from earlier work; remark: listed apart in the source
[5] = tested on: MDA-MB-468; assay: PD-L1 expression in TNBC cell line; assay type: cell-based, human
[6] = tested on: SUM159 cells; assay: Nitric oxide production (nitrate/nitrite fluorometric assay); assay type: cell-based, human; settings: nitrate+nitrite in supernatant, up to 24 hrs
Excerpt: Nitric oxide production in SUM159 cells. […] Aliquots of cell culture supernatant were taken at 0, 0.5, 2, 6 and 24 hrs for nitrate+nitrite (total nitric oxide) production with the nitrate/nitrite fluorometric assay kit (Cayman Chemical) following manufacturer's instructions.

[7] = tested on: SUM159 xenografts; assay: SUM159 xenografts treated with L-NMMA, docetaxel, combination; assay type: in vivo, mice
Method: as §1, §2
To answer this question, daily injections of 80 mg/kg L-NMMA were first given to SUM159 xenograft-bearing mice alone or in combination with docetaxel (20 mg/kg). […] The inventor next analyzed the impact on CSC self-renewal by the MSFE assay.

[8] = tested on: SUM159; assay: Cell proliferation assay (WST-1), iNOS inhibitors; assay type: cell-based, human; settings: highest concentration (4 mM), 96 hrs
Method: (§3) Cell Culture. Mesenchymal-like triple negative breast cancer cell lines, MDA-MB-231 and SUM159, were purchased from American Type Culture Collection and Asterand, respectively. […] Mammosphere forming efficiency (MSFE), cell proliferation and migration assays are detailed below. Cell culture and mammosphere forming efficiency assay. […] For mammosphere-forming efficiency (MSFE) assay, 2,000 (SUM159) and 5,000 (MDA-MB-231) cells/well were cultured in 0.5% methylcellulose (MethoCult H4100, StemCell Technologies) and MammoCult basal medium supplemented with 10% MammoCult proliferation supplement, 4 μg/mL heparin and 0.48 μg/mL hydrocortisone (StemCell Technologies, Vancouver, BC, CANADA). […] Primary MSFE was evaluated dividing mammosphere number by cell number. After trypsinization of primary MS, single cells were grown in 0.5% methylcellulose and mammosphere medium (as described above) in absence of treatment. Secondary MS were scanned, counted and secondary MSFE were assessed. For the mouse model of lung metastasis, MDA-MB-231 cells were transfected with a luciferase/GFP-based dual-reporter plasmid and stable clones (MDA-MB-231 L/G) selected with 1 mg/mL blasticidin (InvivoGen, San Diego, Calif., USA). […] Proliferation rate was determined by adding premixed WST-1 reagent (Clontech). After incubation at 37° C. for 3 hrs, absorbance was read at 450 nm (reference wavelength 690 nm).

[9] = tested on: MDA-MB-231; assay: Cell proliferation assay (WST-1), iNOS inhibitors; assay type: cell-based, human; settings: highest concentration (4 mM), 96 hrs
Method: as §3

[10] = tested on: SUM159; assay: Cell migration, wound healing assay; assay type: cell-based, human; settings: 96 hrs treatment, wound healing 12 hrs
Method: (§4) FIG. 18A and FIG. 18B show the migration of MDA-MB-231 and SUM159 cells was assessed by “wound healing” assay. Briefly, 3×10^5 cells were plated in a 6-well plate until confluence in growth medium. […] A “wound” was then created in the cell monolayer. Images were taken at 0 and 12 hrs. Wound-healing capacity was determined with the software Image J. Data were replicated in three independent experiments. Results were normalized to vehicle;
(§5) Cell migration capacity. Cell migration was determined with a “wound healing assay.” Briefly, 3×10^5 cells/well were grown in 6-well plates until confluence. […] To avoid an impact on cell proliferation, low serum medium was changed by regular growth medium in presence of inhibitors for 24 hrs (96 hrs total). A “wound” was then created in the cell monolayer with a 100-4, pipette tip. Images were taken at 0 hrs, and cells were allowed to heal the wound for 12 hrs. Wound-healing capacity was determined with the software Image J. Data were replicated in three independent experiments.

[11] = tested on: MDA-MB-231; assay: Cell migration, wound healing assay; assay type: cell-based, human; settings: 96 hrs treatment, wound healing 12 hrs
Method: as §4, §5

[12] = tested on: HCC-70; assay: PD-L1 expression in TNBC cell line; assay type: cell-based, human
[13] = LC-MS/MS quantification of methylarginine in plasma and tumor tissue; assay type: in vivo, mice
Method: Metabolite profiling by liquid chromatography-tandem mass spectrometry (LC-MS/MS). MDA-MB-231 and SUM159 xenograft tissue from animal studies (L-NMMA given daily) as well as plasma samples were prepared as previously described. L-NMMA (200 mg/kg) was orally administered by gavage to female SCID Beige mice (n=5). Blood was drawn before (baseline, 0 hrs) and after L-NMMA administration (0.5, 2, 12, 24 hrs). LC-MS/MS platform used for metabolite profiling was previously described. Ratiometric quantification of methylarginine (L-NMMA) and citrulline was determined as ion abundance levels in plasma and tumor tissue.

[14] = tested on: C3L5 and C10; settings: cited from earlier work
[15] = tested on: MDA-MB-231 xenografts; assay: Lung metastases-preventing study, MDA-MB-231 L/G xenografts; assay type: in vivo, mice
Method: For the lung metastases-preventing study, MDA-MB-231 L/G cells were implanted as described above. The mice were randomized and treatments started 48 hrs after cell injection (n=5/group): 1) Vehicle (saline, i.p.), 2) L-NAME (80 mg/kg, i.p., daily for 35 days). Previous injection of luciferin, lungs were removed and washed in cold DMEM+10% FBS+1% antibiotics/antimycotic. Then, lungs were incubated in cold DMEM media containing 50 μM luciferin for 10 min. This protocol avoids the time lapse between lung extraction and exposure to luciferin. Fluorescent cancer cells were detected with an IVIS-200 in vivo imaging system (Perkin Elmer, Inc., Santa Clara, Calif., USA).
as §2
iNOS inhibition reduces tumor growth, tumor initiating capacity and prevents lung metastases in mouse models of triple negative breast cancer. Based on the in vitro data, the inventor next investigated whether iNOS inhibition was able to prevent tumor initiation and metastasis of breast tumor cells in a mouse model of lung metastases. Daily i.p. injections of 80 mg/kg L-NAME were given to MDA-MB-231 xenograft-bearing mice for 35 days. […] Additionally, tumor-initiating capacity of CSC was assessed with a limiting dilution assay (LDA) by injecting single cells isolated from tumor tissue (5×10^5 or 1×10^5 cells) in the right mammary fat pad. All the animals of vehicle group (n=5) developed tumors whereas treatment with L-NAME yielded 3/5 tumors at 1.5 weeks with 5×10^5 cells.
The inventor then examined whether iNOS inhibition was able to suppress metastasis to lungs in TNBC xenografts model. The luciferase/GFP-based MDA-MB-231 (MDA-MB-231 L/G) xenograft mouse model mimics the metastatic process to the lungs in patients. In this model of lung metastasis, cells metastasize from the primary tumor to lungs in ˜35 days after implantation. MDA-MB-231 L/G cells were injected in the right mammary fat pad of SCID mice and 80 mg/kg L-NAME was given daily for 35 days.

[16] = tested on: EMT-6 cells; settings: mouse, in vivo; cited from earlier work

[H]/N=C(/NC)NCCC[C@H](N)C(=O)O [L-NMMA, N^G-monomethyl-L-arginine]
time to normalization of blood pressure upon ceasing the infusion ([1]; 12 mg/kg): less than 5 min
transient increase in systolic blood pressure ([1]; 12 mg/kg): up to 25 mm Hg
safety of bolus injections ([1]; 3, 6, and 12 mg/kg prior to infusion of IL-2, n=3 per cohort): safe
blood pressure ([1]; 3 and 6 mg/kg): remained unchanged
clinically apparent side effects ([1]; 3 and 6 mg/kg): did not induce clinically apparent side effects
hematologic, liver, or renal abnormalities ([1]; human, in vivo): not associated with any hematologic, liver, or renal abnormalities
conversion of L-arginine to L-citrulline and NO by iNOS [2]: inhibits the conversion of L-arginine to L-citrulline and NO by iNOS
limiting dilution assay, tumors ([3]; 5 weeks with 5×10^4 cells, vehicle 12/12): 1/12
tumor growth ([3]; L-NMMA 200 mg/kg daily, docetaxel 20 mg/kg days 0 and 21, 31 days): reduced tumor growth
limiting dilution assay, tumors ([3]; after six weeks, vehicle 6/12): 3/12
primary MS of cells isolated from tumor tissue ([3]; compared to vehicle and chemotherapy alone groups): less
proliferation rate by immunohistochemistry (Ki67) ([3]; mouse, in vivo): lower proliferation rate
secondary MS of cells isolated from tumor tissue ([3]; mouse, in vivo): reduce secondary MS
tolerability ([4]; in vivo): well tolerated with few AEs other than transient (minutes) reversible hypertension
mortality ([4]; myocardial infarction complicated by refractory cardiogenic shock): no effect on mortality
PD-L1 expression [5]: increase the PD-L1 expression
total NO production [6]: decrease in total NO production
duration of elevation in BP (after the last injection of L-NMMA): transient and disappeared 24 hrs after the last injection
mean systolic pressure (oral L-NMMA 200 mg/kg, basal levels 120 mmHg): 147 mm Hg
limiting dilution assay, tumors ([7]; 7 weeks with 5×10^4 cells, vehicle 12/12): 4/12
tumor growth ([7]; L-NMMA 80 mg/kg daily, alone or with docetaxel 20 mg/kg, after 10 days): no differential effect
tumor growth ([7]; L-NMMA daily dose increased to 200 mg/kg, alone or with docetaxel): efficiently blocked
tumor cell proliferation by immunohistochemistry (Ki67) ([7]; mouse, in vivo): Higher proliferating rate in vehicle and chemotherapy groups compared to L-NMMA and combination groups
limiting dilution assay, tumors ([7]; week nine with 2×10^4 cells, vehicle 7/12): 0/12
proliferation [8]: anti-proliferative activity
proliferation [9]: anti-proliferative activity
migration ([10]; micromolar range): not consistent and less effective
migration ([10]; millimolar range): reduction in migration capacity
migration ([11]; micromolar range): not consistent and less effective
migration ([11]; millimolar range): reduction in migration capacity
PD-L1 expression [12]: increase the PD-L1 expression
L-NMMA plasma levels ([13]; 200 mg/kg oral gavage, 0.5, 2, 12, 24 hrs): cleared rapidly
L-NMMA in tumor tissue ([13]; 24 hrs after completion of treatment): accumulates in the tumor tissue

COC(=O)[C@@H](N)CCCNC(=N)N[N+](=O)[O-] [L-NAME, N^5-[imino(nitroamino)methyl]-L-ornithine methyl ester]
invasive and migrating potential [14]: inhibited the invasive and migrating potential
ex vivo imaging of lungs in presence of luciferin (lung metastasis) ([15]; 80 mg/kg daily for 35 days): higher fluorescence in vehicle group compared to L-NAME group
MSFE of primary MS of cells isolated from tumor tissue ([15]; 80 mg/kg i.p. daily for 35 days): significantly reduced
tumor growth ([15]; 80 mg/kg i.p. daily for 35 days, p=0.001): significantly reduced tumor growth
secondary MSFE of cells isolated from tumor tissue ([15]; 80 mg/kg i.p. daily, compared to vehicle group): diminished but not significantly
limiting dilution assay, tumors developed ([15]; 1.5 weeks with 5×10^5 cells, vehicle all animals (n=5)): 3/5
limiting dilution assay, tumors developed ([15]; 2.5 weeks with 1×10^5 cells): 0/5
tumor growth and lung metastasis [16]: decrease tumor growth and lung metastasis
